The text below walks through data of EP1157985A1 (G.D. SEARLE & CO., priority 1996, dated 1997).

Test [1] concerns the target T1, Human fibrinogen receptor (αIIbβ3) (Homo sapiens, UniProt P05106+P08514).
T1 construct: Human fibrinogen receptor (αIIbβ3) was purified from outdated platelets; from tissue; host or cells: outdated (human) platelets
In words: Purified IIb/IIIa receptor assay (solid phase receptor assay, competition with biotinylated vitronectin). It is filed as binding. The note with it: purified receptor from outdated platelets; 1 nM biotinylated vitronectin; highest concentration tested 1.0 x 10^-4 M. The text has this:
PURIFIED IIb/IIIa RECEPTOR ASSAY
Human fibrinogen receptor (αIIbβ3) was purified from outdated platelets. (Pytela, R., Pierschbacher, M.D., Argraves, S., Suzuki, S., and Rouslahti, E. "Arginine-Glycine-Aspartic acid adhesion receptors", Methods in Enzymology 144(1987):475-489.) Human vitronectin was purified from fresh frozen plasma as described in Yatohgo, T., Izumi, M., Kashiwagi, H., and Hayashi, M., "Novel purification of vitronectin from human plasma by heparin affinity chromatography," Cell Structure and Function 13(1988):281-292. Biotinylated human vitronectin was prepared by coupling NHS-biotin from Pierce Chemical Company (Rockford, IL) to purified vitronectin as previously described. (Charo, I.F., Nannizzi, L., Phillips, D.R., Hsu, M.A., Scarborough, R.M., "Inhibition of fibrinogen binding to GP IIb/IIIa by a GP IIIa peptide", J. Biol. Chem. 266(3)(1991): 1415-1421.) Assay buffer, OPD substrate tablets, and RIA grade BSA were obtained from Sigma (St. Louis, MO). Anti-biotin antibody was obtained from Calbiochem (La Jolla, CA). Linbro microtiter plates were obtained from Flow Labs (McLean, VA). ADP reagent was obtained from Sigma (St. Louis, MO).
This assay is essentially the same reported in Niiya, K., Hodson, E., Bader, R., Byers-Ward, V. Koziol, J.A., Plow, E.F. and Ruggeri, Z.M., "Increased surface expression of the membrane glycoprotein IIb/IIIa complex induced by platelet activation: Relationships to the binding of fibrinogen and platelet aggregation", Blood 70(1987):475-483. The purified human fibrinogen receptor (αIIbβ3) was diluted from stock solutions to 1.0 µg/mL in Tris-buffered saline containing 1.0 mM Ca^++, Mg^++, and Mn^++, pH 7.4 (TBS^+++). The diluted receptor was immediately transferred to Linbro microtiter plates at 100 µL/well (100 ng receptor/well). The plates were sealed and incubated overnight at 4°C to allow the receptor to bind to the wells. All remaining steps were at room temperature. The assay plates were emptied and 200 µL of 1% RIA grade BSA in TBS^+++ (TBS^+++/BSA) were added to block exposed plastic surfaces. Following a 2 hour incubation, the assay plates were washed with TBS^+++ using a 96 well plate washer. Logarithmic serial dilution of the test compound and controls were made starting at a stock concentration of 2 mM and using 2 nM biotinylated vitronectin in TBS^+++/BSA as the diluent. This premixing of labeled ligand with test (or control) ligand, and subsequent transfer of 50 µL aliquots to the assay plate was carried out with a CETUS Propette robot; the final concentration of the labeled ligand was 1 nM and the highest concentration of test compound was 1.0 x 10^-4 M. The competition occurred for two hours after which all wells were washed with a plate washer as before. Affinity purified horseradish peroxidase labeled goat anti-biotin antibody was diluted 1:3000 in TBS^+++/BSA and 125 µL were added to each well. After 30 minutes, the plates were washed and incubated with […] substrate in 100 mM/L citrate buffer, pH 5.0. The plate was read with a microtiter plate reader at a wavelength of 450 nm and when the maximum-binding control wells reached an absorbance of about 1.0, the final A450 were recorded for analysis. The data were analyzed using a macro written for use with the EXCEL™ spreadsheet program. The mean, standard deviation, and %CV were determined for duplicate concentrations. The mean A450 values were normalized to the mean of four maximum-binding controls (no competitor added)(B-MAX). The normalized values were subjected to a four parameter curve fit algorithm, [Robard et al., Int. […]

Test [2] addresses T2, Human vitronectin receptor (αvβ3) (Homo sapiens, UniProt P05106+P06756).
T2 construct: Human vitronectin receptor (αvβ3) was purified from human placenta; from tissue; host or cells: human placenta
Nature of the test: Vitronectin adhesion assay (solid phase receptor assay, competition with biotinylated vitronectin). It counts as binding. As for the experimental part: VITRONECTIN ADHESION ASSAY
Human vitronectin receptor (αvβ3) was purified from human placenta as previously described [Pytela et al., Methods in Enzymology, 144:475-489 (1987)]. Human vitronectin was purified from fresh frozen plasma as previously described [Yatohgo et al., Cell Structure and Function, 13:281-292 (1988)]. Biotinylated human vitronectin was prepared by coupling NHS-biotin from Pierce Chemical Company (Rockford, IL) to purified vitronectin as previously described [Charo et al., J. Biol. Chem., 266(3):1415-1421 (1991)]. Assay buffer, OPD substrate tablets, and RIA grade BSA were obtained from Sigma (St. Louis, MO). Anti-biotin antibody was obtained from Calbiochem (La Jolla, CA). Linbro microtiter plates were obtained from Flow Labs (McLean, VA). ADP reagent was obtained from Sigma (St. Louis, MO).
This assay was essentially the same as previously reported [Niiya et al., Blood, 70:475-483 (1987)]. The purified human vitronectin receptor (αvβ3) was diluted from stock solutions to 1.0 µg/mL in Tris-buffered saline containing 1.0 mM Ca^++, Mg^++, and Mn^++, pH 7.4 (TBS^+++). The diluted receptor was immediately transferred to Linbro microtiter plates at 100 µL/well (100 ng receptor/well). The plates were sealed and incubated overnight at 4°C to allow the receptor to bind to the wells. All remaining steps were at room temperature. The assay plates were emptied and 200 µL of 1% RIA grade BSA in TBS^+++ (TBS^+++/BSA) were added to block exposed plastic surfaces. Following a 2 hour incubation, the assay plates were washed with TBS^+++ using a 96 well plate washer. Logarithmic serial dilution of the test compound and controls were made starting at a stock concentration of 2 mM and using 2 nM biotinylated vitronectin in TBS^+++/BSA as the diluent. This premixing of labeled ligand with test (or control) ligand, and subsequent transfer of 50 µL aliquots to the assay plate was carried out with a CETUS Propette robot; the final concentration of the labeled ligand was 1 nM and the highest concentration of test compound was 1.0 x 10^-4 M. The competition occurred for two hours after which all wells were washed with a plate washer as before. Affinity purified horseradish peroxidase labeled goat anti-biotin antibody was diluted 1:3000 in TBS^+++/BSA and 125 µL were added to each well. After 30 minutes, the plates were washed and incubated with OPD/H2O2 substrate in 100 mM/L Citrate buffer, pH 5.0. The plate was read with a microtiter plate reader at a wavelength of 450 nm and when the maximum-binding control wells reached an absorbance of about 1.0, the final A450 were recorded for analysis. The data were analyzed using a macro written for use with the EXCEL™ spreadsheet program. The mean, standard deviation, and %CV were determined for duplicate concentrations. The mean A450 values were normalized to the mean of four maximum-binding controls (no competitor added)(B-MAX). The normalized values were subjected to a four parameter curve fit algorithm [Rodbard et al., Int.

[3] abbreviates: purified receptor from human placenta, 1 nM biotinylated vitronectin, highest concentration tested 1.0 x 10^-4 M, read-out: AvB3 IC50.

Counter-ions that a name gives are not always drawn. Like-named read-outs stand apart in the source and are kept apart here.

With `CCOC(=O)CS(=O)(=O)c1ccc(NC(=O)c2cccc(NC(=N)N)c2)cc1` [Example 80, ethyl [[4-[[[3-[(aminoiminomethyl)amino]phenyl]carbonyl]amino]phenyl]sulfonyl]acetate, monohydrate trifluoroacetate salt], the 50% inhibitory concentration (IC50) in test [1] stood at 19800 nM; in test [2] (setting [3]), 44200 nM.

For the molecule `N=C(N)Nc1cccc(C(=O)Nc2ccc(SCC(=O)O)cc2)c1` [Example 82, [[4-[[[3-[(aminoiminomethyl)amino]phenyl]carbonyl]amino]phenyl]thio]acetic acid, trifluoroacetate], the values for the IC50 in test [1] and in test [2] (setting [3]) were 332 nM and 264 nM, respectively.

For `N=C(N)Nc1cccc(NC(=O)Cc2ccc(OCC(=O)O)cc2)c1` [Example 84, [4-[2-[[3-[(aminoiminomethyl)amino]phenyl]amino]-2-oxoethyl]phenoxy]acetic acid, trifluoroacetate salt], the half-maximal inhibitory concentration (IC50) is 486 nM in test [1] and 16300 nM in test [2] (setting [3]).

Take `CC(Oc1ccc(NC(=O)c2cccc(NC(=N)N)c2)cc1)C(=O)O` (stereo not drawn) [Example 85, 2-[4-[[[3-[(aminoiminomethyl)amino]phenyl]. carbonyl]amino]phenoxy]propanoic acid, trifluoroacetate salt]: the 50% inhibitory concentration (IC50) in test [1] amounted to 12600 nM; in test [2] (setting [3]), 827 nM.

Take `COC(=O)C(C)Oc1ccc(NC(=O)c2cccc(NC(=N)N)c2)cc1` (stereo not drawn) [Example 85C]: the IC50 was found to be 66000 nM in test [1] and 39600 nM in test [2] (setting [3]).

For the molecule `N=C(N)Nc1cccc(C(=O)Nc2ccc(OC(C(=O)O)c3ccccc3)cc2)c1` (stereo not drawn) [Example 86, α-[4-[[[3-[(aminoiminomethyl)amino]phenyl]carbonyl]amino]phenoxy]benzeneacetic acid, trifluoroacetate salt], the IC50 came out at 3140 nM in test [1] and 307 nM in test [2] (setting [3]).

Take `CCOC(=O)COc1ccc(NC(=O)c2cccc(NC(=N)N)c2)cc1` [Example 89, ethyl [4-[[[3-[(aminoiminomethyl)amino]phenyl]carbonyl]amino]phenoxy]acetate, trifluoroacetate salt]: the IC50 in test [1] came to 16000 nM; in test [2] (setting [3]), 2070 nM.

Consider `NC(N)=Nc1cccc(C(=O)Nc2ccc(CCC(=O)O)c(C(=O)O)c2)c1` [Example 101A, 4-[[[3-[(aminoiminomethyl)amino]phenyl]carbonyl]-amino]-2-carboxybenzenepropanoic acid, bis(trifluoroacetate) salt], for which the IC50 stood at 57 nM in test [1] and 9 nM in test [2] (setting [3]).

With `COC(=O)c1cc(NC(=O)c2cccc(NC(=N)N)c2)ccc1CCC(=O)O` [Example 101B, 4-[[[3-[(aminoiminomethyl)amino]phenyl]carbonyl]-amino]-2-methoxycarbonyl)benzenepropanoic acid, bis(trifluoroacetate) salt], the figures for the half-maximal inhibitory concentration (IC50) in test [1] and in test [2] (setting [3]) were 286 nM and 35 nM, respectively.

Take `O=C(O)CCc1ccc(NC(=O)c2cccc(NC3=NCCCN3)c2)cc1C(=O)O` [Example 102, 2-carboxy-4-[[[3-[(1,4,5,6-tetrahydropyrimidin-2-yl)-amino]phenyl]carbonyl]amino]benzenepropanoic acid, trifluoroacetate salt]: the IC50 came out at 4710 nM in test [1] and 6 nM in test [2] (setting [3]).

Regarding `CC(C)OC(=O)NC(Cc1ccc(NC(=O)c2cccc(NC(N)=NC(N)=O)c2)cc1)C(=O)O` (stereo not drawn) [Example 105, 4-[[[3-[[amino[(aminocarbonyl)imino]methyl]-amino]phenyl]carbonyl]amino]-N-[(1-methylethoxy]carbonyl]phenylalanine, bis(trifluoroacetate) salt], the IC50 in test [1] stood at 267 nM; in test [2] (setting [3]) it was 2 nM.

Take `CC(C)CC(=O)NC(Cc1ccc(NC(=O)c2cccc(NC(=N)N)c2)cc1)C(=O)O` (stereo not drawn) [Example 106, 4-[[[3-[(aminoiminomethyl]amino]phenyl]-carbonyl]amino]-N-[(3-methyl-1-oxobutyl)-phenylalanine, bis(trifluoroacetate) salt]: the IC50 in test [1] is 77 nM; in test [2], 5 nM.

As to `CC(C)CC(=O)N[C@@H](Cc1ccc(NC(=O)c2cc(NC3=NCCCN3)cc(C(F)(F)F)c2)cc1)C(=O)O` [Example 107, N-(3-methyl-1-oxobutyl)-4-[[[3-[(1,4,5,6-tetrahydro-pyrimidin-2-yl)amino]-5-(trifluoromethyl)phenyl]-carbonyl]amino]phenylalanine, trifluoroacetate salt], the IC50 stood at 1570 nM in test [1] and 0.5 nM in test [2] (setting [3]).

Turning to `CC(C)CC(=O)NC(Cc1ccc(NC(=O)c2cc(NC(=N)N)cc(C(F)(F)F)c2)cc1)C(=O)O` (stereo not drawn) [Example 108, 4-[[[3-[(aminoiminomethyl)amino]-5-(trifluoromethyl)-phenyl]carbonyl]amino]-N-(3-methyl-1-oxobutyl) phenylalanine, trifluoroacetate salt], the IC50 in test [1] stood at 109 nM; in test [2] (setting [3]), 4 nM.

Consider `O=C(Nc1ccc(C[C@H](NS(=O)(=O)c2ccccc2)C(=O)O)cc1)c1cccc(NC2=NCCCN2)c1` [Example 111, N-(phenylsulfonyl)-4-[[[3-[(1,4,5,6-tetrahydro-pyrimidin-2-yl)amino]phenyl]carbonyl]amino]-phenylalanine, trifluoroacetate salt], for which the values for the half-inhibitory concentration (IC50) in test [1] and in test [2] (setting [3]) were 6 nM and 0.1 nM, respectively.

Broadly, the IC50 is the concentration that inhibits the measured activity by half.
